# What was measured:
# Type in all cases: functional, cell-based, Oocyte
# [1] = molecular target: T1, Solute carrier organic anion transporter family member 1A2 (OATP1A2) (Homo sapiens, UniProt P46721); experiment: TP_TRANSPORTER: uptake in Xenopus laevis oocytes; settings: Xenopus laevis oocytes expressing OATP1A2 (SLCO1A2)
# T1 sequence (P46721 whole entry): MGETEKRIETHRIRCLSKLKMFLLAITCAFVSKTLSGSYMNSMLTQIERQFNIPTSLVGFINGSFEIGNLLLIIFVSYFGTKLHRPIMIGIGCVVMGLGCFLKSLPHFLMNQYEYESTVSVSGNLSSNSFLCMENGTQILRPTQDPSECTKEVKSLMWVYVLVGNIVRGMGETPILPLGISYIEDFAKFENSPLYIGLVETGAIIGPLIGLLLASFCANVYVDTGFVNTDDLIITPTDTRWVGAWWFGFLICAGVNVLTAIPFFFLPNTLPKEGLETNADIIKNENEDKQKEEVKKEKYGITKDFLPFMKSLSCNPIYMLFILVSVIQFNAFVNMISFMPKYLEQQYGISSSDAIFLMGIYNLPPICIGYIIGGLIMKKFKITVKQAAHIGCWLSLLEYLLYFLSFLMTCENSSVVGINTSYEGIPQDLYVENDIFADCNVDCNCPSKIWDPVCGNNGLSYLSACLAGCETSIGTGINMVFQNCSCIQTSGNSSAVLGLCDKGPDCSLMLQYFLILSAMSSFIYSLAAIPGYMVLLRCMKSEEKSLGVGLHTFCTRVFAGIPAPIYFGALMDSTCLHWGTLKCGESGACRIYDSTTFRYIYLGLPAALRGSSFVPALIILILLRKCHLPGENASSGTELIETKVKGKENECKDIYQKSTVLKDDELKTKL
# [2] = molecular target: T1, Solute carrier organic anion transporter family member 1A2 (OATP1A2); experiment: TP_TRANSPORTER: inhibition of DHEAS uptake (DHEAS: 5 uM, E1S: 100 uM) in Xenopus laevis oocytes; settings: Xenopus laevis oocytes expressing OATP1A2 (SLCO1A2), probe DHEAS (5 uM)
# [3] = molecular target: T1, Solute carrier organic anion transporter family member 1A2 (OATP1A2); experiment: TP_TRANSPORTER: inhibition of DHEAS uptake (DHEAS: 5 uM, Dexamethasone: 100 uM) in Xenopus laevis oocytes; settings: Xenopus laevis oocytes expressing OATP1A2 (SLCO1A2), probe DHEAS (5 uM)
# [4] = molecular target: T1, Solute carrier organic anion transporter family member 1A2 (OATP1A2); experiment: TP_TRANSPORTER: inhibition of DHEAS uptake (DHEAS: 5 uM, TCDC: 100 uM) in Xenopus laevis oocytes; settings: Xenopus laevis oocytes expressing OATP1A2 (SLCO1A2), probe DHEAS (5 uM)
# [5] = molecular target: T1, Solute carrier organic anion transporter family member 1A2 (OATP1A2); experiment: TP_TRANSPORTER: inhibition of DHEAS uptake (DHEAS: 5 uM, Estradiol-3-sulfate: 100 uM) in Xenopus laevis oocytes; settings: Xenopus laevis oocytes expressing OATP1A2 (SLCO1A2), probe DHEAS (5 uM)
# [6] = molecular target: T1, Solute carrier organic anion transporter family member 1A2 (OATP1A2); experiment: TP_TRANSPORTER: inhibition of DHEAS uptake (DHEAS: 5 uM, TUDC: 100 uM) in Xenopus laevis oocytes; settings: Xenopus laevis oocytes expressing OATP1A2 (SLCO1A2), probe DHEAS (5 uM)
structure (smiles),measurement,setting,value
C[C@]12CC[C@H](OS(=O)(=O)O)CC1=CC[C@@H]1[C@@H]2CC[C@]2(C)C(=O)CC[C@@H]12 [PRASTERONE SULFURIC ACID],Km,[1],6.6 µM
C[C@]12CC[C@@H]3c4ccc(OS(=O)(=O)O)cc4CC[C@H]3[C@@H]1CCC2=O [ESTRONE SULFURIC ACID],inhibition at 100 µM,[2],82.3%
C[C@@H]1C[C@H]2[C@@H]3CCC4=CC(=O)C=C[C@]4(C)[C@@]3(F)[C@@H](O)C[C@]2(C)[C@@]1(O)C(=O)CO [DEXAMETHASONE],inhibition at 100 µM,[3],97.3%
C[C@H](CCC(=O)NCCS(=O)(=O)O)[C@H]1CC[C@H]2[C@@H]3[C@H](O)C[C@@H]4C[C@H](O)CC[C@]4(C)[C@H]3CC[C@]12C [TAUROCHENODEOXYCHOLATE],inhibition at 100 µM,[4],75.2%
C[C@]12CC[C@@H]3c4ccc(OS(=O)(=O)O)cc4CC[C@H]3[C@@H]1CC[C@@H]2O,inhibition at 100 µM,[5],92.9%
C[C@H](CCC(=O)NCCS(=O)(=O)O)[C@H]1CC[C@H]2[C@@H]3[C@@H](O)C[C@@H]4C[C@H](O)CC[C@]4(C)[C@H]3CC[C@]12C [TAURURSODIOL],inhibition at 100 µM,[6],85.7%

# Reference: ChEMBL document CHEMBL2073949, “Dehydroepiandrosterone sulfate (DHEAS): identification of a carrier protein in human liver and brain” (FEBS Lett, 1998)
